Here are results for two compounds from US8293704B2, “Crystalline form of linaclotide” (priority 2009, dated 2012).

Molecules are shown by their SMILES. Bridge positions count the residues as written; N and C are the ends. Peptide text beside a SMILES is read from it.

The nature of this data set: Solid-state chemical stability of amorphous and α-crystalline linaclotide (HPLC assay after storage at 40° C./75% RH). The format is physicochemical. As to conditions: for Degradation Products / Normalized Assay / Acetylation Product / Hydrolysis Product / Non-disulfide linked multimers / Water-Mediated Products: induction sealed 45 cc HDPE bottles; for Remaining fraction (not assay, not degradation products), may comprise multimers: 3 months at 40° C./75% RH. The procedure: The relative chemical purity and stability of amorphous and crystalline linaclotide was studied using reverse phase high performance liquid chromatography (HPLC). The chemical identification was conducted using reverse phase high performance liquid chromatography coupled with mass spectroscopy (HPLC-MS). The mass spectroscopic analysis was performed at Enhance MS scan (EMS) mode with positive ionization and a scan range (m/z) of 600-1600.
A Perkin Elmer series 200 LC instrument (Perkin Elmer, Waltham, Mass.) was used with a YMC Pro C18 column (150 mm×3.0 mm, 3 μm) (Waters Corporation, Milford, Mass.). The column temperature was set at 40° C. while the auto sampler temperature was maintained at 4° C. using a peltier tray. The injection volume was 50 μl. A gradient (0.6 ml/minute) run was used comprising of two solvents; A (97.9% Water, 2% Acetonitrile, 0.1% Trifluoroacetic Acid) and B (94.9% Acetonitrile, 5% Water, 0.1% Trifluoroacetic Acid). The gradient was set according to the scheme described in Table 10. The effluent was detected at 220 nm using a UV detector.
The solid-state chemical stability of the α-crystalline form of linaclotide was then compared to that of amorphous form linaclotide. Known quantities of test materials were placed in 45 cc high-density polyethylene bottles. The bottles were induction sealed and placed in 40° C./75% RH stability chamber. Two bottles were then withdrawn at the time points of 2 weeks, at 1 month, at 2 months, and at 3 months, and were analyzed after adequate dilution for assay.

Where [1] appears, read: 3 months storage, 40° C./75% RH.

`C[C@@H]1NC(=O)[C@@H]2CCCN2C(=O)[C@H](CC(N)=O)NC(=O)[C@@H]2CSSC[C@H](N)C(=O)N[C@H]3CSSC[C@H](NC1=O)C(=O)N[C@@H]([C@@H](C)O)C(=O)NCC(=O)N[C@H](C(=O)N[C@@H](Cc1ccc(O)cc1)C(=O)O)CSSC[C@H](NC(=O)[C@H](Cc1ccc(O)cc1)NC(=O)[C@H](CCC(=O)O)NC3=O)C(=O)N2` [Amorphous Linaclotide, linaclotide] (H-CCEYCCNPACTGCY-OH; disulfide 1-6, 2-10, 5-13): the “Remaining fraction (not assay, not degradation products), may comprise multimers” value was 19.2%. Under “1 Month at 40° C./75% RH”, the “Degradation Products” value came out at 5.6 Wt % and the “Normalized Assay” value was 79.1 Wt %. Also, where the note is “2 Months at 40° C./75% RH”, the “Degradation Products” value is 9.3 Wt % and the “Normalized Assay” value is listed as 74.5 Wt %. Also, where the note is “2 Weeks at 40° C./75% RH”, the “Degradation Products” value is 3.6 Wt % and the “Normalized Assay” value was determined as 84.0 Wt %. Where the note is “3 Months at 40° C./75% RH”, the “Degradation Products” value came to 12.0 Wt % and the “Normalized Assay” value came to 68.8 Wt %. Also, under setting [1], the “Acetylation Product” value turned out to be 2.39 Wt %, the “Hydrolysis Product” value is 0.30 Wt %, the Non-disulfide linked multimers is listed as 1.96 Wt % and the “Water-Mediated Products” value stood at 7.00 Wt %. Where the note is “Initial, solid state”, the “Degradation Products” value is listed as 2.1 Wt % and the “Normalized Assay” value is 100.0 Wt %.

Take `C[C@@H]1NC(=O)[C@@H]2CCCN2C(=O)[C@H](CC(N)=O)NC(=O)[C@@H]2CSSC[C@H](N)C(=O)N[C@H]3CSSC[C@H](NC1=O)C(=O)N[C@@H]([C@@H](C)O)C(=O)NCC(=O)N[C@H](C(=O)N[C@@H](Cc1ccc(O)cc1)C(=O)O)CSSC[C@H](NC(=O)[C@H](Cc1ccc(O)cc1)NC(=O)[C@H](CCC(=O)O)NC3=O)C(=O)N2` [α-Crystalline Linaclotide, linaclotide] (H-CCEYCCNPACTGCY-OH; disulfide 1-6, 2-10, 5-13): for the setting “1 Month at 40° C./75% RH”, the “Degradation Products” value came out at 3.8 Wt % and the “Normalized Assay” value amounted to 91.9 Wt %. Besides, under “2 Months at 40° C./75% RH”, the “Degradation Products” value worked out at 5.1 Wt % and the “Normalized Assay” value was 89.7 Wt %. Where the note is “2 Weeks at 40° C./75% RH”, the “Degradation Products” value is recorded as 2.6 Wt % and the “Normalized Assay” value is listed as 94.8 Wt %. Further, where the note is “3 Months at 40° C./75% RH”, the “Degradation Products” value turned out to be 7.5 Wt % and the “Normalized Assay” value worked out at 88.4 Wt %. The “Remaining fraction (not assay, not degradation products), may comprise multimers” value (listed as α-form linaclotide) came out at 4.1%. In addition, under setting [1], the “Acid-induced hydrolysis (in words)” value was “pronounced”, the “Acetylation Product” value is reported as 0.31 Wt %, the “Hydrolysis Product” value stood at 5.70 Wt % and the Non-disulfide linked multimers is given as 0.07 Wt %. Moreover, the “Water-Mediated Products” value under setting [1] amounted to 0.40 Wt %. Besides, for the setting “40° C./75% RH, up to 3 months”, the “Concentration of degradation products compared with amorphous linaclotide (in words)” value was “significantly lower concentration of degradation products”, the “Multimer formation compared with amorphous linaclotide (in words)” value is given as “significantly less multimer formation” and the “Stability profile compared with amorphous linaclotide (in words)” value is “substantially better stability profile than amorphous linaclotide”. Besides, for the setting “Initial, solid state”, the “Degradation Products” value is 2.4 Wt % and the “Normalized Assay” value was 100.0 Wt %.
